# Laboratory results as given in patent EP1233943B1, “IONIZABLE INDOLINONE DERIVATIVES AND THEIR USE AS PTK LIGANDS” (Sugen, Inc., priority 1999, dated 2001).
# Read-outs that look alike come from different tables or passages of the source.
# Experiments:
# [1] = in vivo; conditions: mouse, in vivo, ip, 75 mg/kg/day
# Protocol: (§1) In most experiments, compound was administered daily.
# (§2) Tumor growth was measured using venier calipers.
# [2] = system: EpH4-VEGF1 (murine epithelial); test: in vivo; conditions: 75 mg/kg/d IP daily in DMSO; day 18; BALB/c nu/nu mice
# Protocol: as §1, §2
# [3] = system: C6 (rat glioma)
# Protocol: (§5) C6 cells were cultured in Ham's F-10 supplemented with 5% FBS and 2mM L-glutamine. […] All cell cultures were maintained at 37°C in a humidified atmosphere of 5-10% CO2.
# (§6) Tumor cell lines (0.6 - 10 x 10^6 cells/animal; n = 8-20 animals/group) were implanted SC in the hindflank region of 8-12 week old BALB/c nu/nu female mice.
# (§7) Tumor growth was measured using venier calipers. Tumor volumes were calculated as the product of length x width x height. Statistical analysis was carried out using Student's t-test.
# (§8) C6 cells were implanted SC into athymic mice on day zero. […] On Day 16, all Group 3 animals were humanely sacrificed due to tumor burden (mean tumor diameter approximately 1300 mm^3), and the growth of tumors in Groups 1 and 2 was monitored until the mean tumor burden of each group reached 1300 mm^3.
# (§9) Beginning one day post-implantation, compound (200 mg/kg/day in solution in a Labrasol®-containing vehicle) was administered to mice PO. Tumor growth was measured using venier calipers and tumor volumes were calculated as the product of length x width x height.
# [4] = physchem
# Protocol: The solution was filtered, appropriate dilutions made and the concentration of the compound in the supernatant was analyzed by a reverse phase HPLC method.
# [5] = in vivo
# Protocol: as §5, §6, §7, §8, §9
# [6] = system: SKOV3TP5 (human ovarian); conditions: 75 mg/kg/d IP daily in DMSO; day 25; BALB/c nu/nu mice
# Protocol: (§3) SF763T, SF767T, and SKOV3TP5 were derived by implanting the parental cells SC into BALB/c nu/nu mice.
# For the SKOV3TP5 cells, fragments of resected tumors were injected SC into mice for in vivo passaging. This procedure was repeated five times before cells were returned to culture as described above.
# as §1, §2
# [7] = Oral bioavailability of formulations in beagle dogs; assay type: in vivo; conditions: higher doses in fasted conditions
# Protocol: The formulation described below enhance the oral bioaviability of COMPOUND IV in beagle dogs, a preclinical absorption model.
# Both formulations contain 50 mg/gm of Pluronic F-68. The formulation at 50 mg/gm of COMPOUND IV contains 900 mgs of sesame oil and the one that contains 250 mg/gm of COMPOUND IV contains 700 mgs of sesame oil.
# AUC refers to the area under the curve of the plasma concentration time curve and represents oral bioavilability (BA). Higher AUC indicates higher BA.
# [8] = system: SF767T (human glioma); conditions: 75 mg/kg/d IP daily in DMSO; day 21; BALB/c nu/nu mice
# Protocol: as §3
# (§4) For the SF763T and SF767T cell lines, two to five mL of appropriate medium was added to the slurry and the tumor pieces were further mechanically teased apart. […] Medium was changed every two to three days. After three to five passages, the antibiotic supplements were removed and the cells maintained in antibiotic-free medium.
# as §1, §2
# [9] = system: SF763T (human glioma); conditions: 75 mg/kg/d IP daily in DMSO; day 21; BALB/c nu/nu mice
# Protocol: as §3, §4, §1, §2
# [10] = system: A375 (human melanoma); test: in vivo; conditions: 75 mg/kg/d IP in DMSO, dosed 3x/week; day 29; BALB/c nu/nu mice
# Protocol: as §1, §2
# [11] = in vivo; conditions: mouse, in vivo, ip, 75 mg/kg/day; remark: listed apart in the source
# Protocol: as §1, §2
# [12] = Subcutaneous xenograft model in athymic mice, A431; assay type: in vivo, human; conditions: mouse, in vivo, 100 mg/kg/day; 100 mg/kg/d IP daily in DMSO
# Protocol: as §1, §2
# [13] = system: A431 (human epidermal); test: Subcutaneous xenograft model in athymic mice, A431; assay type: in vivo; conditions: 100 mg/kg/d IP daily in DMSO; day 24; BALB/c nu/nu mice
# Protocol: as §1, §2
smiles,measurement,setting,value
"Cc1[nH]c(C=C2C(=O)Nc3ccccc32)c(C)c1CCC(=O)O [Example 1, 3-[2,4-dimethyl-5-(2-oxo-1,2-dihydro-indol-3-ylidenemethyl)-1H-pyrrol-3-yl]-propionic acid]",mortality,[1],0%
same,% Inhibition @ (day),[2],34 (18) %
same,% Inhibition @ (day),"[3]; 100 mg/kg/d IP daily in DMSO, day 18, BALB/c nu/nu mice",65 (18) %
same,% Inhibition (at day),"[3]; IP 25 mg/kg Daily X 5, day 18",1(18) %
same,% Inhibition (at day),"[3]; IP 50 mg/kg Daily X 5, day 18",68 (18) %
same,% Inhibition (at day),"[3]; IP 50 mg/kg Daily, day 18",27 (18) %
same,% Inhibition (at day),"[3]; IP 50 mg/kg Three times weekly, day 18",25 (18) %
same,% Inhibition (at day),"[3]; IP 50 mg/kg Twice weekly, day 19",36 (19) %
same,% Inhibition (at day),"[3]; IP 75 mg/kg Daily X 5, day 18",54 (18) %
same,% Inhibition (at day),"[3]; IP 75 mg/kg Daily, day 18",53 (18) %
same,% Inhibition (at day),"[3]; IP 75 mg/kg Three times weekly, day 18",29 (18) %
same,% Inhibition (at day),"[3]; IP 75 mg/kg Twice weekly, day 19",26 (19) %
same,efficacy on established tumors,"[3]; IP 75 mg/kg/day from Day 7, when measurable tumors were present",efficacious
same,% Inhibition (at day),"[3]; IP 100 mg/kg Daily X 5 followed by Once weekly, day 15",42(15) %
same,% Inhibition (at day),"[3]; IP 100 mg/kg Daily, day 18",65 (18) %
same,% Inhibition (at day),"[3]; IP 100 mg/kg Three times weekly, day 18",40 (18) %
same,% Inhibition (at day),"[3]; IP 100 mg/kg Twice weekly, day 19",38 (19) %
same,tumor growth inhibition,"[3]; IP 100 mg/kg twice weekly or three times weekly, statistically significant",approximately 40%
same,% Inhibition (at day),"[3]; IP 150 mg/kg Daily X 5 followed by once weekly, day 15",51 (15) %
same,tumor growth inhibited,"[3]; PO 200 mg/kg/day in a Labrasol-containing vehicle, Day 18 post-implantation, compared to vehicle-treated animals",82%
same,solubility,[4]; 2% polysorbate-80,< 13 mg/mL
same,solubility,"[4]; 30% peg 300 in buffer, pH 8.2, organic solvent or mixture",32 mg/mL
same,mortality,"[5]; ip, 100 mg/kg/day",12.5%
same,mortality,"[5]; po, 200 mg/kg/day",10%
same,% Inhibition @ (day),[6],9 (25) %
same,bioavailability,[7],low bioavailability
same,% Inhibition @ (day),[8],46 (21) %
same,% Inhibition @ (day),[9],48 (21) %
same,% Inhibition @ (day),[10],56(29) %
same,mortality,[11],0%
same,mortality,[12],12.5%
same,% Inhibition @ (day),[13],84 (24) %
